For this test, the target named is T1, human PDE10A2 (Homo sapiens, UniProt Q9Y233).
T1 construct: made in house; host or cells: AD293 cells, transiently transfected; cytoplasmic fraction of the lysate used as enzyme
Nature of the test: PDE10 fluorescence polarization (IMAP FP) assay. Format: biochemical. The note with it: human PDE10 enzyme, FAM-labeled cAMP substrate 50 nM. The procedure:
The activity of the compounds in accordance with the present invention as PDE10 inhibitors may be readily determined without undue experimentation using a fluorescence polarization (FP) methodology well known in the art (Huang, W., et al., J. Biomol Screen, 2002, 7: 215).
In a typical experiment the PDE10 inhibitory activity of the compounds of the present invention is determined in accordance with the following experimental method. PDE10A2 is amplified from human fetal brain cDNA (Clontech, Mountain View, Calif.) using a forward primer corresponding to nucleotides 56-77 of human PDE10A2 (Accession No. AF127480, Genbank Identifier 4894716), containing a Kozak consensus sequence, and a reverse primer Corresponding to nucleotides 2406-2413 of human PDE10A2 (Accession No. AF127480, Genbank Identifier 4894716). Amplification with Easy-A polymerase (Stratagene, La Jolla, Calif.) is carried out at 95° C. for 2 minutes followed by thirty three cycles of 95° C. for 40 seconds, 55° C. for 30 seconds, and 72° C. for 2 minutes 48 seconds. Final extension is at 72° C. for 7 minutes. The PCR product is TA cloned into pcDNA3.2-TOPO (Invitrogen, Carlsbad, Calif.) according to standard protocol.
AD293 cells with 70-80% confluency are transiently transfected with human PDE10A2/pcDNA3.2-TOPO using Lipofectamine 2000 according to manufacturer specifications (Invitrogen, Carlsbad, Calif.). Cells are harvested 48 hours post-transfection and lysed by sonication (setting 3, 10×5 sec pulses) in a buffer containing 20 mM HEPES, 1 mM EDTA and protease inhibitor cocktail (Roche). Lysate is collected by centrifugation at 75,000×g for 20 minutes. Supernatant containing the cytoplasmic fraction is used for evaluation of PDE10A2 activity.
The fluorescence polarization assay for cyclic nucleotide phosphodiesterases is performed using an IMAP® FP kit supplied by Molecular Devices, Sunnyvale, Calif. (product #R8139). IMAP® technology has been applied previously to phosphodiesterase assays (Huang, W., et al., J. Biomol Screen, 2002, 7: 215). Assays are performed at room temperature in 384-well microtiter plates with an incubation volume of 20.2 μL. Solutions of test compounds are prepared in DMSO and serially diluted with DMSO to yield 8 μL of each of 10 solutions differing by 3-fold in concentration, at 32 serial dilutions per plate. 100% inhibition is determined using a known PDE10 inhibitor, which can be any compound that is present at 5,000 times its Ki value in the assay described as follows, such as papaverine (see Siuciak, et al. Neuropharmacology (2006) 51:386-396; Becker, et al. Behav Brain Res (2008) 186(2):155-60; Threlfell, et al., J Pharmacol Exp Ther (2009) 328(3):785-795), 2-{4-[pyridin-4-yl-1-(2,2,2-trifluoroethyl)-1H-pyrazol-3-yl]phenoxymethyl}quinoline succinic acid or 2-[4-(1-methyl-4-pyridin-4-yl-1H-pyrazol-3-yl)-phenoxymethyl]quinoline succinic acid (see Schmidt, et al. J Pharmacol Exp Ther (2008) 325:681-690; Threlfell, et al., J Pharmacol Exp Ther (2009) 328(3): 785-795). 0% of inhibition is determined by using DMSO (1% final concentrations).
A Labcyte Echo 555 (Labcyte, Sunnyvale, Calif.) is used to dispense 200 nL from each well of the titration plate to the 384 well assay plate. A solution of enzyme (1/1600 dilution from aliquots; sufficient to produce 20% substrate conversion) and a separate solution of FAM-labeled cAMP PDE from Molecular Devices (product # R7506), at a final concentration of 50 nM are made in the assay buffer (10 mM Tris HCl, pH 7.2, 10 mM MgCl2, 0.05% NaN3 0.01% Tween-20, and 1 mM DTT). The enzyme and the substrate are then added to the assay plates in two consecutive additions of 10 μL, and then shaken to mix. The reaction is allowed to proceed at room temperature for 30 minutes. A binding solution is then made from the kit components, comprised of 80% Solution A, 20% Solution B and binding reagent at a volume of 1/600 the total binding solution. […]
(In fluorescence polarisation assays a small probe gives low polarisation when free and higher when bound to something large.)

Each structure is given as a SMILES string.

By Ki is commonly meant the equilibrium dissociation constant of an inhibitor or competing ligand from its target. A higher Ki goes with a looser hold on the target.

T1 sequence (Q9Y233 267-1055): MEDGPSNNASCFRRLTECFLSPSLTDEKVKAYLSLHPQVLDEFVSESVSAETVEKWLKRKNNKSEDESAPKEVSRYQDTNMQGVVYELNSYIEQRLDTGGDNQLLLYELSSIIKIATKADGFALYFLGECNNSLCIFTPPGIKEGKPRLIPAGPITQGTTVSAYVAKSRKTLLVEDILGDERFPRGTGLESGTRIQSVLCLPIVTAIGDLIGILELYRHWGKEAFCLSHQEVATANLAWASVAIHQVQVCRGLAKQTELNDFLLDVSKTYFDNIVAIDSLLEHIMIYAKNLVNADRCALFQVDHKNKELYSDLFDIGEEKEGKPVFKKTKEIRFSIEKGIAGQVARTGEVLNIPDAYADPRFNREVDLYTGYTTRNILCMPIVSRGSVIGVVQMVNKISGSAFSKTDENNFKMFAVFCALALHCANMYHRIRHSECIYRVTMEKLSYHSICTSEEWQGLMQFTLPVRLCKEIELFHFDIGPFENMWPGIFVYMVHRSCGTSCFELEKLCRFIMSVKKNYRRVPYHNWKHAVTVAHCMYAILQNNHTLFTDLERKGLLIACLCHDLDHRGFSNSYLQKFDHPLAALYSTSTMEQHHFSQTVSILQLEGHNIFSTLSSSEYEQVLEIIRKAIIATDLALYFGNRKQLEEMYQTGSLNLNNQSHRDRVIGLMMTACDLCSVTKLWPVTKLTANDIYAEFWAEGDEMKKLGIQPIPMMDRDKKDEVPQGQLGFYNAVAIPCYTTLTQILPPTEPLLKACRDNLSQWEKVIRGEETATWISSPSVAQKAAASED

As for `Cc1ncccc1-c1cccc(-c2nc(NCc3ccncc3)c3ccncc3n2)c1` [1-1, 2-[3-(2-Methylpyridin-3-yl)phenyl]-N-(pyridin-4-ylmethyl)pyrido[3,4-d]pyrimidin-4-amine], the affinity, expressed as Ki, was 1.4 nM.

In the case of `COc1ncccc1-c1cccc(-c2nc(NCCO)c3ccncc3n2)c1` [1-3, 2-({2-[3-(2-Methoxypyridin-3-yl)phenyl]pyrido[3,4-d]pyrimidin-4-yl}amino)ethanol], the Ki came to 2.7 nM.

With `COc1ncccc1-c1cccc(-c2nc(NCc3cncnc3)c3ccncc3n2)c1` [1-4, 2-[3-(2-Methoxypyridin-3-yl)phenyl]-N-(pyrimidin-5-ylmethyl)pyrido[3,4-d]pyrimidin-4-amine], the Ki was 0.41 nM.

Turning to `c1cc(-c2nc(NCCN3CCOCC3)c3ccncc3n2)cc(-c2cncc3ccccc23)c1` [1-7], the Ki came to 0.55 nM.

In the case of `O=S(=O)(c1cccc2c1CN(c1nc(NCc3ccncc3)c3ccncc3n1)CC2)N1CCOCC1` [1-8, 2-[8-(Morpholin-4-ylsulfonyl)-3,4-dihydroisoquinolin-2(1H)-yl]-N-(pyridin-4-ylmethyl)pyrido[3,4-d]pyrimidin-4-amine], the affinity corresponds to a Ki of 0.23 nM.

For the compound `c1cc(-c2nc(OCc3ccncc3)c3ccncc3n2)cc(-c2ncco2)c1` [1-9, 2-[3-(1,3-Oxazol-2-yl)phenyl]-4-(pyridin-4-ylmethoxy)pyrido[3,4-d]pyrimidine], the Ki stood at 2.7 nM.

Compound `COc1ncccc1-c1cncc(-c2nc(NCc3cncnc3)c3ccncc3n2)c1` [1-11, 2-(2′-methoxy-3,3′-bipyridin-5-yl)-N-(pyrimidin-5-ylmethyl)pyrido[3,4-d]pyrimidin-4-amine] yielded a Ki of 0.84 nM.

In turn, `CC(C)OC(=O)c1cccc(-c2nc(NCc3ccncc3)c3ccncc3n2)c1` [1-13, isopropyl 3-{4-[(pyridin-4-ylmethyl)amino]pyrido[3,4-d]pyrimidin-2-yl}benzoate] had a Ki of 1.4 nM.

`COc1ncccc1-c1cccc(-c2nc(NCc3ccncc3)c3ccncc3n2)c1` [A-6, 2-{3-[2-(Methyloxy)pyridin-3-yl]phenyl}-N-(pyridin-4-ylmethyl)pyrido[3, d]pyrimidin-4-amine] came in with a Ki of 0.4 nM.

Consider `c1ccc2c(c1)CCN(c1nc(NCc3ccncc3)c3ccncc3n1)C2` [B-4, 2-(3,4-Dihydroisoquinolin-2(1H)-yl)-N-(pyridin-4-ylmethyl)pyrido[3,4-d]pyrimidin-4-amine], for which the inhibition constant Ki was 5.6 nM.

Turning to `C(=C\c1nc(NCc2cncnc2)c2ccncc2n1)/c1ccccc1` [C-2, 2-[(E)-2-Phenylvinyl]-N-(pyrimidin-5-ylmethyl)pyrido[3,4-d]pyrimidin-4-amine], the Ki stood at 131 nM.
